Kd data for 52 compounds are collected here from ChEMBL document CHEMBL5506066, “Potency-Enhanced Peptidomimetic VHL Ligands with Improved Oral Bioavailability” (J Med Chem, 2024).

The target of assay [1] is T1, von Hippel-Lindau disease tumor suppressor (Homo sapiens, UniProt P40337). The assay is described as follows: biochemical.
Description: Binding affinity to VHL (unknown origin)-NanoLuc fusion protein expressed in HEK293 cells assessed as apparent dissociation constant incubated for 30 mins in presence of digitonin by NanoBRET assay
The target of assay [2] is T1, von Hippel-Lindau disease tumor suppressor.

Some results are limits rather than exact numbers.

T1 sequence (P40337 whole entry): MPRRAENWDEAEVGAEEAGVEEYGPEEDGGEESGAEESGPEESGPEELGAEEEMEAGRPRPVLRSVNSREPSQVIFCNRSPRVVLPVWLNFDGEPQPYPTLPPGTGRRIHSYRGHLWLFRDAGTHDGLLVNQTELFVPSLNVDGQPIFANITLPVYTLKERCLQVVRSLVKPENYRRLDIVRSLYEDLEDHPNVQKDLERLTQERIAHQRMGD

Take `CSCC[C@H](NC(C)=O)C(=O)N1C[C@H](O)C[C@H]1C(=O)N[C@H](Cc1ccc(-c2ccccc2)cc1)C(N)=O`: the Kd stood at 8.9 µM in assay [1] and 26.6 µM in assay [2].

For `CC(=O)NC(C(=O)N1C[C@H](O)C[C@H]1C(=O)N[C@H](Cc1ccc(-c2ccccc2)cc1)C(N)=O)C12CC(C(F)(F)F)(C1)C2` (some centres undefined), the Kd in assay [1] came out at 2.4 µM; in assay [2] it was 6.6 µM.

Consider `CC(=O)N[C@H](C(=O)N1C[C@H](O)C[C@H]1C(=O)N[C@H](C(N)=O)c1ccc(-c2scnc2C)cc1)C(C)(C)C`, for which the values for the Kd in assay [1] and in assay [2] were 2.15 µM and 14 µM, respectively.

As for `COc1ccc(-c2ccc(C[C@@H](NC(=O)[C@@H]3C[C@@H](O)CN3C(=O)[C@@H](NC(C)=O)C(C)(C)C)C(N)=O)cc2)cc1F`, the Kd in assay [1] was 21.2 µM; in assay [2], greater than 57.5 µM.

Consider `CC(=O)N[C@@H](CC1CC1)C(=O)N1C[C@H](O)C[C@H]1C(=O)N[C@H](Cc1ccc(-c2ccccc2)cc1)C(N)=O`, for which the Kd in assay [1] was found to be 12.9 µM; in assay [2] it was 31.1 µM.

As to `CC(=O)N[C@H](C(=O)N1C[C@H](O)C[C@H]1C(=O)N[C@H](Cc1ccc(-c2ccc(F)cn2)cc1)C(N)=O)C(C)(C)C`, the Kd in assay [1] turned out to be 2.9 µM; in assay [2], 6.6 µM.

For the compound `CC(=O)NC1(C(=O)N2C[C@H](O)C[C@H]2C(=O)N[C@H](Cc2ccc(-c3ccccc3)cc2)C(N)=O)CCC1`, the Kd in assay [1] is greater than 51.8 µM; in assay [2], greater than 57.5 µM.

Turning to `CC(=O)NC1(C(=O)N2C[C@H](O)C[C@H]2C(=O)N[C@H](Cc2ccc(-c3ccccc3)cc2)C(N)=O)CCCCC1`, the Kd in assay [1] is greater than 51.8 µM; in assay [2], greater than 57.5 µM.

For the compound `CC(=O)N[C@H](C(=O)N1C[C@H](O)C[C@H]1C(=O)N[C@H](Cc1ccc(-c2ccccc2)cc1)C(N)=O)C(C)(C)c1ccccc1`, the Kd was found to be 3.1 µM in assay [1] and 4.6 µM in assay [2].

On to `CC(=O)NC(C)(C)C(=O)N1C[C@H](O)C[C@H]1C(=O)N[C@H](Cc1ccc(-c2ccccc2)cc1)C(N)=O`, for which the Kd was greater than 51.8 µM in assay [1] and greater than 57.5 µM in assay [2].

`CC(=O)N[C@]1(C(=O)N2C[C@H](O)C[C@H]2C(=O)N[C@H](Cc2ccc(-c3ccccc3)cc2)C(N)=O)CC1(C)C`: the Kd was greater than 51.8 µM in assay [1] and greater than 57.5 µM in assay [2].

On to `CC(=O)NCC(=O)N1C[C@H](O)C[C@H]1C(=O)N[C@H](Cc1ccc(-c2ccccc2)cc1)C(N)=O`, for which the figures for the equilibrium dissociation constant (Kd) in assay [1] and in assay [2] were greater than 51.8 µM and greater than 57.5 µM, respectively.

`NC(=O)[C@@H](Cc1ccc(-c2ccccc2)cc1)NC(=O)[C@@H]1C[C@@H](O)CN1C(=O)Cc1cnco1`: the dissociation constant Kd in assay [1] is greater than 51.8 µM; in assay [2], greater than 57.5 µM.

`CC(=O)NC1(C(=O)N2C[C@H](O)C[C@H]2C(=O)N[C@H](Cc2ccc(-c3ccccc3)cc2)C(N)=O)CC1`: the Kd in assay [1] is greater than 51.8 µM; in assay [2], greater than 57.5 µM.

In the case of `CC(=O)N1CCCC[C@H]1C(=O)N1C[C@H](O)C[C@H]1C(=O)N[C@H](Cc1ccc(-c2ccccc2)cc1)C(N)=O`, the Kd in assay [1] was determined as 4.9 µM; in assay [2], 10.5 µM.

Consider `NC(=O)[C@@H](Cc1ccc(-c2ccccc2)cc1)NC(=O)[C@@H]1C[C@@H](O)CN1C(=O)Cc1ccon1`, for which the values for the Kd in assay [1] and in assay [2] were greater than 51.8 µM and greater than 57.5 µM, respectively.

For `CC(=O)N[C@H](C(=O)N1C[C@H](O)C[C@H]1C(=O)N[C@H](Cc1ccc(-c2ccccc2)cc1)C(N)=O)C1CCNCC1`, the results for the Kd in assay [1] and in assay [2] were 11.5 µM and greater than 57.5 µM, respectively.

As for `CC(=O)N[C@H](C(=O)N1C[C@H](O)C[C@H]1C(=O)N[C@H](Cc1ccc(C#N)cc1)C(N)=O)C(C)(C)C`, the Kd in assay [1] was 9 µM; in assay [2], greater than 57.5 µM.

On to `CC(=O)N[C@H](C(=O)N1C[C@H](O)C[C@H]1C(=O)N[C@H](Cc1ccc(-c2ccccc2F)cc1)C(N)=O)C(C)(C)C`, for which the Kd in assay [1] stood at 2.7 µM; in assay [2], 4.4 µM.

As for `NC(=O)[C@@H](Cc1ccc(-c2ccccc2)cc1)NC(=O)[C@@H]1C[C@@H](O)CN1C(=O)Cn1ccnn1`, the values for the Kd in assay [1] and in assay [2] were greater than 51.8 µM and greater than 57.5 µM, respectively.

As for `CC(=O)N1CCC[C@H]1C(=O)N1C[C@H](O)C[C@H]1C(=O)N[C@H](Cc1ccc(-c2ccccc2)cc1)C(N)=O`, the Kd in assay [1] is 12.7 µM; in assay [2] it was greater than 57.5 µM.

On to `CC(=O)N[C@H](C(=O)N1C[C@H](O)C[C@H]1C(=O)N[C@H](Cc1ccc(C)cc1)C(N)=O)C(C)(C)C`, for which the Kd was greater than 51.8 µM in assay [1] and greater than 57.5 µM in assay [2].

Take `CC(=O)N[C@H](C(=O)N1C[C@H](O)C[C@H]1C(=O)N[C@H](Cc1ccc(-c2ccccc2Cl)cc1)C(N)=O)C(C)(C)C`: the Kd in assay [1] was found to be 1.8 µM; in assay [2], 5.5 µM.

As for `CC(=O)N[C@@H](Cc1cscn1)C(=O)N1C[C@H](O)C[C@H]1C(=O)N[C@H](Cc1ccc(-c2ccccc2)cc1)C(N)=O`, the Kd in assay [1] is 14.2 µM; in assay [2] it was greater than 57.5 µM.

`CC(C)(C)n1nnc(CC(=O)N2C[C@H](O)C[C@H]2C(=O)N[C@H](Cc2ccc(-c3ccccc3)cc2)C(N)=O)n1`: the values for the dissociation constant (Kd) in assay [1] and in assay [2] were 48.6 µM and greater than 57.5 µM, respectively.

Take `CC(=O)N[C@H](C(=O)N1C[C@H](O)C[C@H]1C(=O)N[C@H](Cc1ccc(I)cc1)C(N)=O)C(C)(C)C`: the equilibrium dissociation constant (Kd) in assay [1] came out at 2.6 µM; in assay [2], 6.1 µM.

As for `Cc1cn(CC(=O)N2C[C@H](O)C[C@H]2C(=O)N[C@H](Cc2ccc(-c3ccccc3)cc2)C(N)=O)nn1`, the equilibrium dissociation constant (Kd) in assay [1] is greater than 51.8 µM; in assay [2], greater than 57.5 µM.

Turning to `COc1ccc(-c2ccc(C[C@@H](NC(=O)[C@@H]3C[C@@H](O)CN3C(=O)[C@@H](NC(C)=O)C(C)(C)C)C(N)=O)cc2)cc1`, the Kd in assay [1] is 30.9 µM; in assay [2], greater than 57.5 µM.

Turning to `CC(=O)N[C@H](C(=O)N1C[C@H](O)C[C@H]1C(=O)N[C@H](Cc1ccc(-c2cccc(Cl)n2)cc1)C(N)=O)C(C)(C)C`, the Kd was 4.2 µM in assay [1] and greater than 57.5 µM in assay [2].

Take `CC(=O)N[C@H](C(=O)N1C[C@H](O)C[C@H]1C(=O)N[C@H](Cc1ccc(-c2ccccc2)cc1)C(N)=O)C1(C)CC1`: the Kd in assay [1] amounted to 3.9 µM; in assay [2], 15.4 µM.

For the compound `CC(=O)N[C@H](C(=O)N1C[C@H](O)C[C@H]1C(=O)N[C@H](Cc1ccc(-c2ccccc2)cc1)C(N)=O)C12CC3CC(CC(C3)C1)C2`, the values for the Kd in assay [1] and in assay [2] were 0.41 µM and 0.68 µM, respectively.

`CC(=O)N[C@H](C(=O)N1C[C@H](O)C[C@H]1C(=O)N[C@H](Cc1ccc(-c2ccccc2)cc1)C(N)=O)C1CCOCC1`: the results for the Kd in assay [1] and in assay [2] were 2.9 µM and 17.8 µM, respectively.

For `CC(=O)N[C@@H](Cc1ccccc1)C(=O)N1C[C@H](O)C[C@H]1C(=O)N[C@H](Cc1ccc(-c2ccccc2)cc1)C(N)=O`, the Kd in assay [1] is 18.1 µM; in assay [2], greater than 57.5 µM.

Consider `CC(=O)N[C@@]1(C(=O)N2C[C@H](O)C[C@H]2C(=O)N[C@H](Cc2ccc(-c3ccccc3)cc2)C(N)=O)CC1(C)C`, for which the Kd in assay [1] is greater than 51.8 µM; in assay [2], greater than 57.5 µM.

As to `CC(=O)N[C@@H](CCCN)C(=O)N1C[C@H](O)C[C@H]1C(=O)N[C@H](Cc1ccc(-c2ccccc2)cc1)C(N)=O`, the Kd in assay [1] was 17.3 µM; in assay [2], greater than 57.5 µM.

As to `CC(=O)N[C@H](C(=O)N1C[C@H](O)C[C@H]1C(=O)N[C@H](Cc1ccc(C(C)(C)C)cc1)C(N)=O)C(C)(C)C`, the Kd in assay [1] is greater than 51.8 µM; in assay [2], greater than 57.5 µM.

In the case of `NC(=O)[C@@H](Cc1ccc(-c2ccccc2)cc1)NC(=O)[C@@H]1C[C@@H](O)CN1C(=O)Cc1cncs1`, the Kd in assay [1] is greater than 51.8 µM; in assay [2] it was greater than 57.5 µM.

For `Cc1cc(CC(=O)N2C[C@H](O)C[C@H]2C(=O)N[C@H](Cc2ccc(-c3ccccc3)cc2)C(N)=O)on1`, the values for the Kd in assay [1] and in assay [2] were 24.4 µM and 46.9 µM, respectively.

For `CC(=O)N[C@H](C(=O)N1C[C@H](O)C[C@H]1C(=O)N[C@@H](C(N)=O)c1ccc(-c2scnc2C)cc1)C(C)(C)C`, the Kd in assay [1] was determined as 0.21 µM; in assay [2], 1.99 µM.

Consider `CC(=O)N[C@H](C(=O)N1C[C@H](O)C[C@H]1C(=O)N[C@H](Cc1ccc(-c2ccccc2)cc1)C(N)=O)C1CCN(C(C)=O)CC1`, for which the Kd in assay [1] was 2.7 µM; in assay [2], greater than 57.5 µM.

On to `COc1ccccc1-c1ccc(C[C@@H](NC(=O)[C@@H]2C[C@@H](O)CN2C(=O)[C@@H](NC(C)=O)C(C)(C)C)C(N)=O)cc1`, for which the Kd was found to be 4.3 µM in assay [1] and 12.2 µM in assay [2].

Consider `Cc1ncc(CC(=O)N2C[C@H](O)C[C@H]2C(=O)N[C@H](Cc2ccc(-c3ccccc3)cc2)C(N)=O)s1`, for which the dissociation constant (Kd) in assay [1] was greater than 51.8 µM; in assay [2], greater than 57.5 µM.

Take `NC(=O)[C@@H](Cc1ccc(-c2ccccc2)cc1)NC(=O)[C@@H]1C[C@@H](O)CN1C(=O)Cc1ccoc1`: the results for the Kd in assay [1] and in assay [2] were greater than 51.8 µM and greater than 57.5 µM, respectively.

In the case of `Cc1noc(CC(=O)N2C[C@H](O)C[C@H]2C(=O)N[C@H](Cc2ccc(-c3ccccc3)cc2)C(N)=O)n1`, the Kd is greater than 51.8 µM in assay [1] and greater than 57.5 µM in assay [2].

`CC(=O)N[C@H](C(=O)N1C[C@H](O)C[C@H]1C(=O)N[C@H](Cc1ccc(-c2ccccc2)cc1)C(N)=O)C(c1ccccc1)c1ccccc1`: the Kd in assay [1] is 47 µM; in assay [2], greater than 57.5 µM.

Take `CSC[C@H](NC(C)=O)C(=O)N1C[C@H](O)C[C@H]1C(=O)N[C@H](Cc1ccc(-c2ccccc2)cc1)C(N)=O`: the values for the Kd in assay [1] and in assay [2] were 18.6 µM and 46.5 µM, respectively.

As for `CC(=O)N[C@H](C(=O)N1C[C@H](O)C[C@H]1C(=O)N[C@H](Cc1ccc(-c2cccnc2)cc1)C(N)=O)C(C)(C)C`, the dissociation constant Kd was determined as 2.7 µM in assay [1] and 45.2 µM in assay [2].

On to `CC(=O)N[C@H](C(=O)N1C[C@H](O)C[C@H]1C(=O)N[C@H](Cc1ccc(-c2ccc(F)c(Cl)c2)cc1)C(N)=O)C(C)(C)C`, for which the values for the Kd in assay [1] and in assay [2] were 3.5 µM and 11 µM, respectively.

As to `CC(=O)N[C@H](C(=O)N1C[C@H](O)C[C@H]1C(=O)N[C@H](Cc1ccc(-c2ccc(F)cc2)cc1)C(N)=O)C(C)(C)C`, the Kd in assay [1] was determined as 2.1 µM; in assay [2] it was 11.8 µM.

Turning to `NC(=O)[C@@H](Cc1ccc(-c2ccccc2)cc1)NC(=O)[C@@H]1C[C@@H](O)CN1C(=O)Cc1ccccn1`, the Kd was greater than 51.8 µM in assay [1] and greater than 57.5 µM in assay [2].

As for `CC(=O)N1CC[C@H]1C(=O)N1C[C@H](O)C[C@H]1C(=O)N[C@H](Cc1ccc(-c2ccccc2)cc1)C(N)=O`, the Kd turned out to be 48 µM in assay [1] and 57.5 µM in assay [2].

`CC(=O)N[C@H](C(=O)N1C[C@H](O)C[C@H]1C(=O)N[C@H](Cc1ccccc1)C(N)=O)C(C)(C)C`: the figures for the Kd in assay [1] and in assay [2] were greater than 51.8 µM and greater than 57.5 µM, respectively.
